Data: PubChem BioAssay AID330 (DTP/NCI, 2004)
Where “and” joins values, the source holds several entries; their conditions need not be identical. Identical values can stand only once. Inconclusive results and toxic doses are left out. Rule for the calls: active = survival T/C of 150% or more; inactive = T/C below 125% in these data.

System: P388 leukemia ip, CD2F1 mice, survival T/C
Assay: NCI In Vivo Anticancer Drug Screen. Data for tumor model P388 Leukemia (intraperitoneal) in CD2F1 (CDF1) mice
Settings: endpoint: median survival time, higher = longer survival
Method in brief: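 Mice carrying the transplanted tumor received test compound or vehicle. Survival was recorded in each group, and the value is the treated-group measurement divided by that of the vehicle-treated control group.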

[1] = dose: 50.0 mg/kg/injection, schedule: Q01DX009 (ip), vehicle: saline with Tween-80
[2] = dose: 100.0 mg/kg/injection, schedule: Q01DX009 (ip), vehicle: saline with Tween-80
[3] = dose: 200.0 mg/kg/injection, schedule: Q01DX009 (ip), vehicle: saline with Tween-80
[4] = dose: 50.0 mg/kg/injection, schedule: Q01DX005 (ip), vehicle: Klucel (hydroxypropylcellulose) (HPC)
[5] = dose: 100.0 mg/kg/injection, schedule: Q01DX005 (ip), vehicle: Klucel (hydroxypropylcellulose) (HPC)
[6] = dose: 200.0 mg/kg/injection, schedule: Q01DX005 (ip), vehicle: Klucel (hydroxypropylcellulose) (HPC)
[7] = dose: 60.0 mg/kg/injection, schedule: Q01DX005 (ip), vehicle: saline with Tween-80
[8] = dose: 120.0 mg/kg/injection, schedule: Q01DX005 (ip), vehicle: saline with Tween-80
[9] = dose: 240.0 mg/kg/injection, schedule: Q01DX005 (ip), vehicle: saline with Tween-80
[10] = dose: 50.0 mg/kg/injection, schedule: Q01DX005 (ip), vehicle: saline
[11] = dose: 6.25 mg/kg/injection, schedule: Q01DX009 (ip), vehicle: saline with Tween-80
[12] = dose: 12.5 mg/kg/injection, schedule: Q01DX009 (ip), vehicle: saline with Tween-80
[13] = dose: 25.0 mg/kg/injection, schedule: Q04DX003 (ip), vehicle: saline with Tween-80
[14] = dose: 12.5 mg/kg/injection, schedule: Q04DX003 (ip), vehicle: saline with Tween-80
[15] = dose: 25.0 mg/kg/injection, schedule: Q01DX009 (ip), vehicle: saline with Tween-80
[16] = dose: 400.0 mg/kg/injection, schedule: Q01DX009 (ip), vehicle: saline with Tween-80

Measured: T/C

Cc1cc2c(cc1[N+](=O)[O-])NC(CNC(C)C)CC2 (stereo not drawn)
inactive: [1] 101 % of control | [2] 105 % of control | [3] 108 % of control

COC(=O)C1=C(C(=O)OC)P2(C)(C)N(C)C(=S)N2C1(c1ccccc1)c1ccccc1
inactive: [4] 102 % of control | [5] 94 % of control | [6] 94 % of control

CC(=O)N1N=C(C)C2ON=C(c3ccc(Cl)cc3)P21 (stereo not drawn)
inactive: [4] 107 % of control | [5] 100 % of control | [6] 100 % of control

Cc1c([N+](=O)[O-])oc2ccc3ccccc3c12
inactive: [7] 113 % of control | [8] 94 % of control | [9] 107 % of control

COC(=O)c1cccc(OCC(=O)Nc2ccccc2)c1
inactive: dose: 100.0 mg/kg/injection, schedule: Q01DX001 (ip), vehicle: saline with Tween-80 100 % of control | dose: 200.0 mg/kg/injection, schedule: Q01DX001 (ip), vehicle: saline with Tween-80 100 % of control | dose: 400.0 mg/kg/injection, schedule: Q01DX001 (ip), vehicle: saline with Tween-80 90 % of control

Nc1ccc(-c2c3ccccc3nc3cc(N)ccc23)cc1
inactive: [10] 118 % of control | dose: 100.0 mg/kg/injection, schedule: Q01DX005 (ip), vehicle: saline 115 % of control

[O-][N+]1=C(/C=C/C=C/c2ccccc2)CCC1
inactive: dose: 50.0 mg/kg/injection, schedule: Q01DX009 (ip), vehicle: other 95 % of control | dose: 100.0 mg/kg/injection, schedule: Q01DX009 (ip), vehicle: other 107 % of control | dose: 200.0 mg/kg/injection, schedule: Q01DX009 (ip), vehicle: other 118 % of control

Oc1c(-c2ccccc2)nc2cnccn12
inactive: [7] 100 % of control | [8] 107 % of control | [9] 107 % of control

O=Cc1ccc2occc2c1O
inactive: dose: 3.75 mg/kg/injection, schedule: Q01DX009 (ip), vehicle: saline with Tween-80 95 % of control | dose: 7.5 mg/kg/injection, schedule: Q01DX009 (ip), vehicle: saline with Tween-80 94 % of control | dose: 15.0 mg/kg/injection, schedule: Q01DX009 (ip), vehicle: saline with Tween-80 92 % of control

CSC(=S)NN=C1CCCCC1
inactive: dose: 0.78 mg/kg/injection, schedule: Q01DX009 (ip), vehicle: saline with Tween-80 97 % of control | dose: 1.56 mg/kg/injection, schedule: Q01DX009 (ip), vehicle: saline with Tween-80 108 % of control | dose: 3.13 mg/kg/injection, schedule: Q01DX009 (ip), vehicle: saline with Tween-80 105 % of control | [11] 98 % of control | [12] 113 % of control

NC(=S)c1cncnc1N
inactive: [13] 102 % of control | dose: 50.0 mg/kg/injection, schedule: Q04DX003 (ip), vehicle: saline with Tween-80 99 % of control | dose: 100.0 mg/kg/injection, schedule: Q04DX003 (ip), vehicle: saline with Tween-80 104 % of control

CC[N+](CC)(CC)CC
inactive: dose: 3.13 mg/kg/injection, schedule: Q04DX003 (ip), vehicle: saline with Tween-80 100 % of control | [14] 118 % of control

CC(=O)NC(CC(C)C)C(=O)O (stereo not drawn)
inactive: [15] 95 % of control | [1] 86 % of control and 94 % of control | dose: 100.0 mg/kg/injection, schedule: Q01DX009 (ip), vehicle: Klucel (hydroxypropylcellulose) (HPC) 104 % of control | [2] 100 % of control and 105 % of control | dose: 200.0 mg/kg/injection, schedule: Q01DX009 (ip), vehicle: Klucel (hydroxypropylcellulose) (HPC) 114 % of control | [3] 118 % of control | dose: 400.0 mg/kg/injection, schedule: Q01DX009 (ip), vehicle: Klucel (hydroxypropylcellulose) (HPC) 100 % of control | [16] 105 % of control

ClC(=Nc1ccccc1)c1ccccn1
inactive: dose: 12.5 mg/kg/injection, schedule: Q01DX009 (ip), vehicle: Klucel (hydroxypropylcellulose) (HPC) 101 % of control | dose: 25.0 mg/kg/injection, schedule: Q01DX009 (ip), vehicle: Klucel (hydroxypropylcellulose) (HPC) 101 % of control | dose: 50.0 mg/kg/injection, schedule: Q01DX009 (ip), vehicle: Klucel (hydroxypropylcellulose) (HPC) 96 % of control

C=C/C(C)=C\CC/C(C)=C/c1cc(C(=O)O)co1
inactive: dose: 4.0 mg/kg/injection, schedule: Q01DX009 (ip), vehicle: Klucel (hydroxypropylcellulose) (HPC) 104 % of control | dose: 8.0 mg/kg/injection, schedule: Q01DX009 (ip), vehicle: Klucel (hydroxypropylcellulose) (HPC) 100 % of control | dose: 16.0 mg/kg/injection, schedule: Q01DX009 (ip), vehicle: Klucel (hydroxypropylcellulose) (HPC) 99 % of control | dose: 32.0 mg/kg/injection, schedule: Q01DX009 (ip), vehicle: Klucel (hydroxypropylcellulose) (HPC) 100 % of control

O=[N+]([O-])c1ccccc1/C(=N\O)c1cccs1
inactive: dose: 100.0 mg/kg/injection, schedule: Q04DX002 (ip), vehicle: Klucel (hydroxypropylcellulose) (HPC) 107 % of control | dose: 200.0 mg/kg/injection, schedule: Q04DX002 (ip), vehicle: Klucel (hydroxypropylcellulose) (HPC) 100 % of control

CN(C)c1ccc2c(=O)c(C(=O)O)c[nH]c2c1
inactive: dose: 6.25 mg/kg/injection, schedule: Q01DX005 (ip), vehicle: saline 96 % of control | dose: 12.5 mg/kg/injection, schedule: Q01DX005 (ip), vehicle: saline 100 % of control | dose: 25.0 mg/kg/injection, schedule: Q01DX005 (ip), vehicle: saline 96 % of control | dose: 25.0 mg/kg/injection, schedule: Q01DX009 (ip), vehicle: water 99 % of control | [10] 95 % of control | dose: 50.0 mg/kg/injection, schedule: Q01DX009 (ip), vehicle: water 101 % of control | dose: 100.0 mg/kg/injection, schedule: Q01DX009 (ip), vehicle: water 94 % of control | dose: 200.0 mg/kg/injection, schedule: Q01DX009 (ip), vehicle: water 89 % of control | dose: 400.0 mg/kg/injection, schedule: Q01DX009 (ip), vehicle: water 93 % of control

CCOC(=O)C(=O)c1cn(C)c(=O)n(C)c1=O
inactive: [1] 106 % of control | [2] 104 % of control | [3] 104 % of control

Nc1ccccc1Cl
inactive: dose: 31.25 mg/kg/injection, schedule: Q01DX009 (ip), vehicle: saline with Tween-80 95 % of control | dose: 62.5 mg/kg/injection, schedule: Q01DX009 (ip), vehicle: saline with Tween-80 109 % of control | dose: 125.0 mg/kg/injection, schedule: Q01DX009 (ip), vehicle: saline with Tween-80 100 % of control

O=C(Nc1ccc(Nc2ccc3c(c2)C(=O)c2ccccc2C3=O)c2c1C(=O)c1ccccc1C2=O)c1ccccc1
inactive: [4] 92 % of control | [5] 91 % of control | [6] 88 % of control

CC1(C)c2ccccc2N2C(c3ccccc3)=NN(c3ccccc3)C21C (stereo not drawn)
inactive: [7] 100 % of control | [8] 100 % of control

COc1cc(NC(C)=O)c2ncccc2c1NC(C)=O
inactive: [4] 99 % of control | [5] 96 % of control | [6] 87 % of control

O=C(NC1CCCCC1)O/N=C/c1cccnc1
inactive: [1] 101 % of control | [2] 98 % of control | [3] 93 % of control

CN1c2ccc(Cl)cc2C(=O)NC1c1ccc([N+](=O)[O-])s1 (stereo not drawn)
inactive: [1] 106 % of control | [2] 108 % of control | [3] 113 % of control | [16] 115 % of control

COC(=O)C1(CC(=O)c2ccncc2)NC(=S)NC(=O)C1C#N (stereo not drawn)
inactive: dose: 60.0 mg/kg/injection, schedule: Q01DX005 (ip), vehicle: saline 99 % of control | dose: 120.0 mg/kg/injection, schedule: Q01DX005 (ip), vehicle: saline 101 % of control | dose: 240.0 mg/kg/injection, schedule: Q01DX005 (ip), vehicle: saline 94 % of control

Cc1cc(=O)c(C(=O)NC=O)c(C)o1
inactive: [4] 99 % of control | [5] 101 % of control | [6] 117 % of control

S=C(N/N=C/c1ccncc1)Nc1ccccc1
inactive: dose: 60.0 mg/kg/injection, schedule: Q01DX005 (ip), vehicle: Klucel (hydroxypropylcellulose) (HPC) 99 % of control | dose: 120.0 mg/kg/injection, schedule: Q01DX005 (ip), vehicle: Klucel (hydroxypropylcellulose) (HPC) 100 % of control | dose: 240.0 mg/kg/injection, schedule: Q01DX005 (ip), vehicle: Klucel (hydroxypropylcellulose) (HPC) 91 % of control

[Cl][Cu][Cl].[O-][n+]1c2ccccc2nc2ccccc21
inactive: [14] 92 % of control | [13] 103 % of control

Cc1cc(N=Nc2ccncc2C)ccc1N
inactive: [11] 106 % of control | [12] 104 % of control | [15] 100 % of control | [1] 92 % of control
